{
  "source": "ChEMBL document CHEMBL6182931",
  "about": "“Chemical Evolution of Aplithianine Class of Serine/Threonine Kinase Inhibitors” (J Med Chem, 2025)",
  "key": {"[1]": {"test": "Inhibition of DNAJB1-PKAcalpha (unknown origin) using biotinylated-peptide substrate CREB incubated for 45 mins in presence of ATP and cAMP by ELISA", "parameters": "species or system Homo sapiens"}, "[2]": {"test": "Aqueous solubility of compound in PBS at pH 7.4 by shake-flask method", "format": "physicochemical"}, "Albumin": {"target": "Albumin (Homo sapiens, UniProt P02768)", "sequence (P02768 whole entry)": "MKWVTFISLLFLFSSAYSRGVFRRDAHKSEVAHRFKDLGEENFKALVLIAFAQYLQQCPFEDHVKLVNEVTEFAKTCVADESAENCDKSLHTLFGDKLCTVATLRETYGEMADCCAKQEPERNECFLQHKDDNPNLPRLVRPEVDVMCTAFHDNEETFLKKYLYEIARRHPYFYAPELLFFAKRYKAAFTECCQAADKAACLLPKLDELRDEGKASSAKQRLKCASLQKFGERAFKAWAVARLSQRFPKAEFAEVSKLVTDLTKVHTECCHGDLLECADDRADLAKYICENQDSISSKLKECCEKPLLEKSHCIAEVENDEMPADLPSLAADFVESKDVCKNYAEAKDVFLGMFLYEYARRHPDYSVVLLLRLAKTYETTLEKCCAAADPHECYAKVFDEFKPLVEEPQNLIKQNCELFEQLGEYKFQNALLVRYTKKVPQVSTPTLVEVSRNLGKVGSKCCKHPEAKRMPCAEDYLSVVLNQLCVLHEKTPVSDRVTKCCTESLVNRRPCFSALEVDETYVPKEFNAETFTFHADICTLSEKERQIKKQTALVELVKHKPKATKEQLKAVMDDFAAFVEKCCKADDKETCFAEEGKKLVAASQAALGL", "test": "Binding affinity to human serum albumin assessed as protein binding at 10 uM by equilibrium dialysis technique relative to control", "format": "ADME", "conditions": "isolated protein"}, "[3]": {"test": "Apparent permeability across apical to basolateral side in human Caco-2 cells at 10 uM", "format": "ADME, cell-based", "conditions": "caco-2, 10 µM"}, "[4]": {"test": "Apparent permeability across basolateral to apical side in human Caco-2 cells at 10 uM", "format": "ADME, cell-based", "conditions": "caco-2, 10 µM"}, "[5]": {"test": "Efflux ratio of apparent permeability across basolateral to apical side over apical to basolateral side in human Caco-2 cells at 10 uM", "format": "ADME, cell-based"}, "[6]": {"test": "Metabolic stability in human liver microsomes assessed as half-life at 0.1 uM measured after 60 mins", "format": "ADME, Microsome", "conditions": "1 h"}, "[7]": {"test": "Metabolic stability in human liver microsomes assessed as intrinsic clearance at 0.1 uM measured after 60 mins", "format": "ADME, Microsome", "conditions": "1 h"}, "[8]": {"test": "Drug metabolism in human liver microsomes at 0.1 uM measured after 60 mins", "format": "ADME, Microsome", "conditions": "1 h"}, "hERG (KCNH2)": {"target": "hERG (KCNH2) (Homo sapiens, UniProt Q12809)", "test": "Inhibition of human ERG expressed in CHO cells at 10 uM by electrophysiological analysis relative to control", "format": "toxicity, cell-based", "conditions": "CHO cells that express human ERG"}, "[9]": {"test": "Inhibition of DNAJB1-PKAcalpha (unknown origin) overexpressed in mouse NIH/3T3 cells assessed as inhibition of CREB phosphorylation at Ser133 residue preincubated for 30 mins followed by forskolin addition and measured after 30 mins by fluorescence based multilabel reader analysis", "format": "cell-based", "conditions": "NIH3T3"}, "OVCAR-4": {"system": "OVCAR-4", "test": "Antiproliferative activity against human OVCAR-4 cells assessed as growth inhibition", "format": "functional, cell-based"}, "MOLT-4": {"system": "MOLT-4", "test": "Antiproliferative activity against human MOLT-4 cells assessed as growth inhibition", "format": "functional"}, "MDA-MB-468": {"system": "MDA-MB-468", "test": "Antiproliferative activity against human MDA-MB-468 cells assessed as growth inhibition", "format": "functional, cell-based"}, "LOX IMVI": {"system": "LOX IMVI", "test": "Antiproliferative activity against human LOX IMVI cells assessed as growth inhibition", "format": "functional"}, "SR": {"system": "SR", "test": "Antiproliferative activity against human SR cells assessed as growth inhibition", "format": "functional"}, "NCI/ADR-RES": {"system": "NCI/ADR-RES", "test": "Antiproliferative activity against human NCI/ADR-RES cells assessed as growth inhibition", "format": "functional, cell-based"}, "[10]": {"target": "cAMP-dependent protein kinase catalytic subunit beta (Homo sapiens) (UniProt P22694)", "test": "Inhibition of human PKAbeta at 50 nM in presence of ATP by radiometric Hotspot kinase assay"}, "[11]": {"target": "RAC-alpha serine/threonine-protein kinase (Homo sapiens) (UniProt P31749)", "sequence (P31749 whole entry)": "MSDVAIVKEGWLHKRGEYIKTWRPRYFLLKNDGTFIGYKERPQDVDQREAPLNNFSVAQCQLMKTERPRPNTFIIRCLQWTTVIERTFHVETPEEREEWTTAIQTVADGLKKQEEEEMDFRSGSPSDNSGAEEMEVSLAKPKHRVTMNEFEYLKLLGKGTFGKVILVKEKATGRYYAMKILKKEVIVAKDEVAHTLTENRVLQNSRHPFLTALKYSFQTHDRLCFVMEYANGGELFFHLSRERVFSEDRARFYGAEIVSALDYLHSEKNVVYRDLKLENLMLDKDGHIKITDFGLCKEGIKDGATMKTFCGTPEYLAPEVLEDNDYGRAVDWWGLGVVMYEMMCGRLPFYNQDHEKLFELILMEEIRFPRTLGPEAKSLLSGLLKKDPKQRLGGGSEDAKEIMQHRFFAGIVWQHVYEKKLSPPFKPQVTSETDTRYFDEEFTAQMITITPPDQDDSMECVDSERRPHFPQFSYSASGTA", "test": "Inhibition of human Akt1 at 50 nM in presence of ATP by radiometric Hotspot kinase assay"}, "[12]": {"target": "RAC-beta serine/threonine-protein kinase (Homo sapiens) (UniProt P31751)", "sequence (P31751 whole entry)": "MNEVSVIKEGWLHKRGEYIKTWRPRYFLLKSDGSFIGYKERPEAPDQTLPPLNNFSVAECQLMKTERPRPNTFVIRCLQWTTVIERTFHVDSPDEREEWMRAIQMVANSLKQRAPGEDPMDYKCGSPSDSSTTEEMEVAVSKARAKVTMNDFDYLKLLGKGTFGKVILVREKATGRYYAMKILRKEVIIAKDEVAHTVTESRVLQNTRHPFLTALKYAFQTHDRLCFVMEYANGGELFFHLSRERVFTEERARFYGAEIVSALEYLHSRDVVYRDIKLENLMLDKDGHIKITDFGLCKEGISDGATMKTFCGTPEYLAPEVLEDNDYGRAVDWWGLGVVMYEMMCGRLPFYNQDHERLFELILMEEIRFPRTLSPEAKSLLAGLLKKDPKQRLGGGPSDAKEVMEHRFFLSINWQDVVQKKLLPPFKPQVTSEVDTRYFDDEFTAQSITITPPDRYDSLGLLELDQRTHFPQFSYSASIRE", "test": "Inhibition of human Akt2 at 50 nM in presence of ATP by radiometric Hotspot kinase assay"}, "[13]": {"target": "RAC-gamma serine/threonine-protein kinase (Homo sapiens) (UniProt Q9Y243)", "test": "Inhibition of human Akt3 at 50 nM in presence of ATP by radiometric Hotspot kinase assay"}, "[14]": {"target": "Tyrosine-protein kinase JAK1 (Homo sapiens) (UniProt P23458)", "sequence (P23458 whole entry)": "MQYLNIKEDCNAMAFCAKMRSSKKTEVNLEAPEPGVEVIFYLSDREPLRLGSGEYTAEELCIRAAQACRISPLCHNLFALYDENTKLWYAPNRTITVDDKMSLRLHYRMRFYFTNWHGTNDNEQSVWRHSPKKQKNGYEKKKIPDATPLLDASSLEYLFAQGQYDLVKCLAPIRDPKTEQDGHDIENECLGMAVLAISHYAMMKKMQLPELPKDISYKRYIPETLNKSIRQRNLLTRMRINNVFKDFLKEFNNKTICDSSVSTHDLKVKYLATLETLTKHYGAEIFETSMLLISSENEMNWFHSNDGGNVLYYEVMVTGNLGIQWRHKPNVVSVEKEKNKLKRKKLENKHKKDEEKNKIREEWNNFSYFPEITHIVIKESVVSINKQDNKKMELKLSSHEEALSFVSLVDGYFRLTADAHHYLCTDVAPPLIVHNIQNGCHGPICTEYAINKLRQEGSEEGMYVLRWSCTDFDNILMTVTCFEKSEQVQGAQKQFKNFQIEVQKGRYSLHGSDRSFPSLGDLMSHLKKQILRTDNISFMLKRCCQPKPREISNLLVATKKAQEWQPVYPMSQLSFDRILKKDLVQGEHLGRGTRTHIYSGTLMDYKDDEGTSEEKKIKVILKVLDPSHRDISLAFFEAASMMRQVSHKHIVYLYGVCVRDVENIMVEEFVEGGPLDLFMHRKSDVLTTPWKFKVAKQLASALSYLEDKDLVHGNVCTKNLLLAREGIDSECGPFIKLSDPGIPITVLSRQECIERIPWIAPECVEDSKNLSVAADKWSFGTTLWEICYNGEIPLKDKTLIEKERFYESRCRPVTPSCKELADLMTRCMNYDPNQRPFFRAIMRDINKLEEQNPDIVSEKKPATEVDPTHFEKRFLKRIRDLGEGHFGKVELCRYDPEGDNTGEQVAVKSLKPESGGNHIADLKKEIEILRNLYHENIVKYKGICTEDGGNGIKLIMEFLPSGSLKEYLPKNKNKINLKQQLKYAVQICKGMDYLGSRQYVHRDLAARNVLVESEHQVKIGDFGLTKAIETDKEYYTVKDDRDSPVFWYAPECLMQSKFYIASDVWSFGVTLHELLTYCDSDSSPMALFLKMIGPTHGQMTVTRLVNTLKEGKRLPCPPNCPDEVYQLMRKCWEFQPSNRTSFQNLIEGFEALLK", "test": "Inhibition of human JAK1 at 50 nM in presence of ATP by radiometric Hotspot kinase assay relative to control"}, "[15]": {"target": "Tyrosine-protein kinase JAK2 (Homo sapiens) (UniProt O60674)", "sequence (O60674 whole entry)": "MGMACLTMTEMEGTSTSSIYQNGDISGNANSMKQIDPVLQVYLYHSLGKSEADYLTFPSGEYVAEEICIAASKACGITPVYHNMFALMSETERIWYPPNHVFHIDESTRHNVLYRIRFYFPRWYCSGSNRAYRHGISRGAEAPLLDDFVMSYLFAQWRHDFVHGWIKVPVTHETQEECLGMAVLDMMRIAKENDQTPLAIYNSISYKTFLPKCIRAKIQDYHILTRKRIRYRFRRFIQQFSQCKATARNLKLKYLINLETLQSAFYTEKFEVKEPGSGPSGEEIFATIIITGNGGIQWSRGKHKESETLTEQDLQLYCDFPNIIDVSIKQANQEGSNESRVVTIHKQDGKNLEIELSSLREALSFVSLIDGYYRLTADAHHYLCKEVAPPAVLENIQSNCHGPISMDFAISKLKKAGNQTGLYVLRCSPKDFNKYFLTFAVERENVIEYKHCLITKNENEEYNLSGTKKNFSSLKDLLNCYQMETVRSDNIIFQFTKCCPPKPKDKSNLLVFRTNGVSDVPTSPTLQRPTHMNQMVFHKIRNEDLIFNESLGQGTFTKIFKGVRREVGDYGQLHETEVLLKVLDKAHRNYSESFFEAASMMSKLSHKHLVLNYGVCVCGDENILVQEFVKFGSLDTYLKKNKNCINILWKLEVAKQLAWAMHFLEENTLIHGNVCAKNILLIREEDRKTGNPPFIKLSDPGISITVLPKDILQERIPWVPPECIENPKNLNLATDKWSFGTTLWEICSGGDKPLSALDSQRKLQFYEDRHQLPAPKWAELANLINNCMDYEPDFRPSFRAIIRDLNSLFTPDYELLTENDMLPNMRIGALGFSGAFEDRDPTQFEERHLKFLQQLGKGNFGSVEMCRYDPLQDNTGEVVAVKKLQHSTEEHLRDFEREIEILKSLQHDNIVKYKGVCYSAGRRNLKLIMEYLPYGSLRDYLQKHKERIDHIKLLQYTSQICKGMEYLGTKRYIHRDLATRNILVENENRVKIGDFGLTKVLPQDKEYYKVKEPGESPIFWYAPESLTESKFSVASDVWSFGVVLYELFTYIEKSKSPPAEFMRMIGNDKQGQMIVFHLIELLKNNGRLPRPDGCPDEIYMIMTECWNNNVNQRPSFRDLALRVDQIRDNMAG", "test": "Inhibition of human JAK2 at 50 nM in presence of ATP by radiometric Hotspot kinase assay relative to control"}, "[16]": {"target": "Tyrosine-protein kinase JAK3 (Homo sapiens) (UniProt P52333)", "sequence (P52333 whole entry)": "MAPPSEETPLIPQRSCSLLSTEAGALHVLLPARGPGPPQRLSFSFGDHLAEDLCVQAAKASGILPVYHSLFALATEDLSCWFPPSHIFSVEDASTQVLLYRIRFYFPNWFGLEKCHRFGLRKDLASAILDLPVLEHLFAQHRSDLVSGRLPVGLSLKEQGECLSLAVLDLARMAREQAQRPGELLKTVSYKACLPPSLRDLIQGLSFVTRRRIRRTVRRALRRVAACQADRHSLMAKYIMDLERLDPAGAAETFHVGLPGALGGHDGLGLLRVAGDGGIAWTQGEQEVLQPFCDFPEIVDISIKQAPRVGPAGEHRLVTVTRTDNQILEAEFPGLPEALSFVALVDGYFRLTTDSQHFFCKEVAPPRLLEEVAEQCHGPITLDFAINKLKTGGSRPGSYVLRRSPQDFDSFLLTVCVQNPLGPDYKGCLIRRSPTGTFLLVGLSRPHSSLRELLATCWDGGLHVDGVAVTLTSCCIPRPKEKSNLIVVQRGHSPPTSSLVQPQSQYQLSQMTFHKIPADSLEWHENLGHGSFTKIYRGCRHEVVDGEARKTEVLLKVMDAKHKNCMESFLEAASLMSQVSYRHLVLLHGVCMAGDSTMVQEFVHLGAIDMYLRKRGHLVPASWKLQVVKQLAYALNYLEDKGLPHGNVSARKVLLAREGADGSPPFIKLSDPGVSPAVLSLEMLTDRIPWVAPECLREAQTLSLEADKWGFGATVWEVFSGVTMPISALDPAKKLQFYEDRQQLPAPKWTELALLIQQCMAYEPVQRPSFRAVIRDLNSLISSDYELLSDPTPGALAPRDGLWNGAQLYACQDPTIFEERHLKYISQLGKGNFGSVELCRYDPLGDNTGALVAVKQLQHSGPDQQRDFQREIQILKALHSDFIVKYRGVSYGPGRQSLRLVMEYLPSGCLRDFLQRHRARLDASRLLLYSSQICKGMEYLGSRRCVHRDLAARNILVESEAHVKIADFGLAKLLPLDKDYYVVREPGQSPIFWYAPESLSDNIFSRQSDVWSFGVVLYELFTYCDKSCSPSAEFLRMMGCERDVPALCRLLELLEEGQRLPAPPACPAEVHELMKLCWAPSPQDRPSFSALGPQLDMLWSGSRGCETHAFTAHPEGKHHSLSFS", "test": "Inhibition of human JAK3 at 50 nM in presence of ATP by radiometric Hotspot kinase assay relative to control"}, "[17]": {"target": "NT-3 growth factor receptor (Homo sapiens) (UniProt Q16288)", "test": "Inhibition of human TRKC at 50 nM in presence of ATP by radiometric Hotspot kinase assay relative to control"}, "[18]": {"target": "T1, Dual specificity tyrosine-phosphorylation-regulated kinase 2 (Homo sapiens) (UniProt Q92630)", "T1 sequence (whole entry)": "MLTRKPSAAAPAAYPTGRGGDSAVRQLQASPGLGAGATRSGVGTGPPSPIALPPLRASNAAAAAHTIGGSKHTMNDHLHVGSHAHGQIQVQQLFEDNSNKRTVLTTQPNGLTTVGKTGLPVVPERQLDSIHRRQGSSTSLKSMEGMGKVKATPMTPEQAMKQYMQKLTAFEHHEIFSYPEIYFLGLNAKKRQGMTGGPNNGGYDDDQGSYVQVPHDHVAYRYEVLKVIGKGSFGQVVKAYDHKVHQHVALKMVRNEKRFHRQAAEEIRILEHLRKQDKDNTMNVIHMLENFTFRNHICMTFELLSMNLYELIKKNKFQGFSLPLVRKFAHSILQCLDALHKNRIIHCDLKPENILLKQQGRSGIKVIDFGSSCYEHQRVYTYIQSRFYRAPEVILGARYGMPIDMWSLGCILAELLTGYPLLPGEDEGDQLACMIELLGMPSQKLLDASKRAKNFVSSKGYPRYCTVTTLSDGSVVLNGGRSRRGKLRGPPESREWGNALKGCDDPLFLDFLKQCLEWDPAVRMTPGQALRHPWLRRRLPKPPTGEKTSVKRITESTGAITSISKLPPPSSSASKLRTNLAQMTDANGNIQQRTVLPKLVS", "test": "Inhibition of human DYRK2 at 50 nM in presence of ATP by radiometric Hotspot kinase assay relative to control"}, "[19]": {"target": "T2, Dual specificity tyrosine-phosphorylation-regulated kinase 3 (Homo sapiens) (UniProt O43781)", "T2 sequence (whole entry)": "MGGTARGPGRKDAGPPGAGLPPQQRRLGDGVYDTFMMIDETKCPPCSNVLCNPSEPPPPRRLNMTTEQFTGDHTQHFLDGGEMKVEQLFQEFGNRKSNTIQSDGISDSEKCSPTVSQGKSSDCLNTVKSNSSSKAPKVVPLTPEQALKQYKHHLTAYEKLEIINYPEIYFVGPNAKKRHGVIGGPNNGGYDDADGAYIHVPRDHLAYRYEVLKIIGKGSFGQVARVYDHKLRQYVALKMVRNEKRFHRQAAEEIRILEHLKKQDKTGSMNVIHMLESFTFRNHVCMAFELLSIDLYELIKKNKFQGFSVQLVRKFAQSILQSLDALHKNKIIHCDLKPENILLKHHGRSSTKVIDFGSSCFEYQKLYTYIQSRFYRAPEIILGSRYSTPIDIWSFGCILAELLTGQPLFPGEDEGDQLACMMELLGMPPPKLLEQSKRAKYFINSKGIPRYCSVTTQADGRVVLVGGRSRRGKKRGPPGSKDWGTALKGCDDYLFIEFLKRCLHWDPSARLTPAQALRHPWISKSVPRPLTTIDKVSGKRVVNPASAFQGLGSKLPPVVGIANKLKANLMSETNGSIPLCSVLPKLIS", "test": "Inhibition of human DYRK3 at 50 nM in presence of ATP by radiometric Hotspot kinase assay relative to control"}, "[20]": {"target": "cAMP-dependent protein kinase catalytic subunit alpha (Homo sapiens) (UniProt P17612)", "conditions": "dose 50.0 nM", "description": "Inhibition of human PKAalpha at 50 nM in presence of ATP by radiometric Hotspot kinase assay relative to control"}},
  "note": "pIC50: −log10 of the molar value. Active and inactive are the calls of the source. The calls are words filed in the database; no cut-off is given here.",
  "data": [
    {"smiles": "O=C(N[C@@H](c1ccccc1)[C@H]1CCCN1)C1=CN(c2ncnc3[nH]ccc23)CCS1", "values": [
      {"measurement": "pIC50", "setting": "[1]", "value": 8.22},
      {"measurement": "solubility thermodynamic", "setting": "[2]", "value": "> 200", "unit": "µM"},
      {"measurement": "PB", "setting": "Albumin", "value": 84, "unit": "%"},
      {"measurement": "Papp", "setting": "[3]", "value": "0.3 10^-6 cm/s"},
      {"measurement": "Papp", "setting": "[4]", "value": "19.7 10^-6 cm/s"},
      {"measurement": "efflux ratio at 10 µM", "setting": "[5]", "value": 66},
      {"measurement": "t1/2", "setting": "[6]", "value": "> 1", "unit": "h"},
      {"measurement": "CLH", "setting": "[7]", "value": "< 115", "unit": "µL/min/mg"},
      {"measurement": "Drug metabolism", "setting": "[8]", "value": "metabolite_notdetected"},
      {"measurement": "inhibition at 10 µM", "setting": "hERG (KCNH2)", "value": 33, "unit": "%"},
      {"measurement": "pIC50", "setting": "[9]", "value": 6.18},
      {"measurement": "Activity", "setting": "OVCAR-4", "value": "inactive"},
      {"measurement": "Activity", "setting": "MOLT-4", "value": "Active"},
      {"measurement": "Activity", "setting": "MDA-MB-468", "value": "Active"},
      {"measurement": "GI50", "setting": "LOX IMVI", "value": 40, "unit": "nM"},
      {"measurement": "Activity", "setting": "SR", "value": "Active"},
      {"measurement": "Activity", "setting": "NCI/ADR-RES", "value": "inactive"},
      {"measurement": "inhibition", "setting": "[10]", "value": "Active"},
      {"measurement": "inhibition", "setting": "[11]", "value": "Active"},
      {"measurement": "inhibition", "setting": "[12]", "value": "Active"},
      {"measurement": "inhibition", "setting": "[13]", "value": "Active"},
      {"measurement": "inhibition", "setting": "[14]", "value": "> 50", "unit": "%"},
      {"measurement": "inhibition", "setting": "[15]", "value": "> 50", "unit": "%"},
      {"measurement": "inhibition", "setting": "[16]", "value": "> 50", "unit": "%"},
      {"measurement": "inhibition", "setting": "[17]", "value": "> 50", "unit": "%"},
      {"measurement": "inhibition", "setting": "[18]", "value": "Active"},
      {"measurement": "inhibition", "setting": "[19]", "value": "Active"},
      {"measurement": "inhibition", "setting": "[20]", "value": "Active"}
    ]}
  ]
}
